# Legend:
# Format in all cases: cell-based
# hTRPA1 = hTRPA1 (Homo sapiens, UniProt O75762); assay: Calcium imaging (Fura-2) in TRPA1-expressing HEK293 cells; conditions: 50 μM
# Protocol: Ca^2+ Imaging. Ca ^2+ imaging was conducted in mouse DRG and TG neurons from Pirt-GCaMP3 mice (Anderson et al., Neurosci. Bull. 2018, 34, 194-199) at room temperature. The imaging buffer includes 140 mM NaCl, 10 mM D-(+)-Glucose, 1 mM MgCl2, 2 mM CaCl2, 5 mM KCl, 10 mM HEPES, pH=7.4, osmolarity=320 mOsm/L. Calcium signals were measured using green emitted light in a 3 s interval. Ca ^2+ signal amplitudes were presented as ΔF/F0=(Ft−F0)/F0 as ratio of fluorescence difference (Ft−F0) to basal value (F0). The average fluorescence intensity in the baseline period was taken as F0. Ca ^2+ imaging was also analyzed in HEK293-TRPA1 cell line after loading cells with […] fura2-AM (Invitrogen) for 40 min in the Ca^2+ imaging buffer. Ca^2+ imaging protocol was a ratio metric method with 340/380-nm wavelength light for dual excitation. Data were presented as ΔR/R0, determined as the fraction ΔR (Rt−R0) of the increase of a given ratio over baseline ratio (R0).
# TRPV2 = target: T1, TRPV2 (Mus musculus, UniProt Q9WTR1); assay: Whole-cell patch clamp in CHO cells transfected with mouse Trpv2 cDNA; conditions: miR-711 10 μM; cannabidiol 100 μM
# T1 construct: expressed in transfected cells; host or cells: CHO cells (ATCC CRL-9096), plasmid pcDNA3.1-mTrpv2, a gift from Korea University
# T1 sequence (Q9WTR1 1-756): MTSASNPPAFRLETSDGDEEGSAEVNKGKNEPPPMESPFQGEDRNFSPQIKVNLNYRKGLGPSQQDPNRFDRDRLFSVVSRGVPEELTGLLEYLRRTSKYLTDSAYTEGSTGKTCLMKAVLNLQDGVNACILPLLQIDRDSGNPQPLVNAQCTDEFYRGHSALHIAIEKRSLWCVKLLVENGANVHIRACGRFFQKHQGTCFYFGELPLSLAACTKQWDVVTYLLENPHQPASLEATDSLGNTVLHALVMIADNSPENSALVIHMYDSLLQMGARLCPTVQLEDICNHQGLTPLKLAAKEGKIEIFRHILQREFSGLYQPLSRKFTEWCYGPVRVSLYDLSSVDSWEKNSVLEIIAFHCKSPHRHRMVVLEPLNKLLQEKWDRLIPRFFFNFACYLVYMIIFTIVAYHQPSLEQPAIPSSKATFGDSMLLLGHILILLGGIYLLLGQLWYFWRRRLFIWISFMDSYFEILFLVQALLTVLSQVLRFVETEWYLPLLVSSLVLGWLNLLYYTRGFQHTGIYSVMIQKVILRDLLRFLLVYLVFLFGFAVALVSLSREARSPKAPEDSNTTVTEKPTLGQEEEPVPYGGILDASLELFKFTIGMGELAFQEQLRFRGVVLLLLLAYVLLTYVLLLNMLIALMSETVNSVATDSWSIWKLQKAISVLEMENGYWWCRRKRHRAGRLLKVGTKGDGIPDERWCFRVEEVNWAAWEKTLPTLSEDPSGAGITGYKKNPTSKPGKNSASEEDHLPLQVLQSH
# Protocol: (§1) Constructs. The cDNAs of mouse pcDNA3.1-Trpa1, pcDNA3.1-Trpv1, pcDNA3.1-Trpv2, pcDNA3.1-Trpv3, and pcDNA3.1-Trpv4 were kindly provided Dr. Sun Work Hwang from Korea University. Mouse Trpa1 cDNA was subcloned into pCGN-HA backbone (Addgene) using In-Fusion HD Cloning Kit (Clontech Laboratories, CA). Q5 Site-Directed Mutagenesis Kit was used to generate mTrpa1 mutant (M1-M13) based on pCGN-mTrpa1.
# (§2) Cell Culture and Transfection. CD4^+ Myla cell line was cultured in RPMI 1640 media (GIBCO), supplemented with 2 mM Glutamine (GIBCO), 100 U/mL IL-2 (Sigma), 100 U/mL IL-4 (Sigma), and 10% human AB serum (Sigma). HuT 102 cell line was cultured in RPMI 1640 supplemented with pyruvate, HEPES, and 10% (v/v) fetal bovine serum (HyClone). HEK293-hTRPA1 stable cell line was cultured in MEM (GIBCO) containing 2 mM Glutamine, 4 μg/mL Blasticidin, 10% FBS (v/v). B16 and CHO cells were cultured in high glucose (4.5 g/L) Dulbecco's Modified Eagle's Medium (GIBCO) containing 10% (v/v) fetal bovine serum (GIBCO). Culture media were supplemented with 50 units/mL of penicillin and 50 μg/mL streptomycin, and cultures were maintained with 5% CO2 in 37° C. incubator. Transfection (2 μg cDNA) was performed with Lipofectamine™ 2000 Reagent (Invitrogen) at 80% confluency and the transfected cells were cultured in the same media for 48 hr before electrophysiological and biochemical studies. […]
# TRPV1 = target: T2, TRPV1 (Mus musculus, UniProt Q704Y3); assay: Whole-cell patch clamp in CHO cells transfected with mouse Trpv1 cDNA; conditions: miR-711 10 μM; capsaicin 50 nM
# T2 construct: expressed in transfected cells; host or cells: CHO cells (ATCC CRL-9096), plasmid pcDNA3.1-mTrpv1, a gift from Korea University
# T2 sequence (Q704Y3 whole entry): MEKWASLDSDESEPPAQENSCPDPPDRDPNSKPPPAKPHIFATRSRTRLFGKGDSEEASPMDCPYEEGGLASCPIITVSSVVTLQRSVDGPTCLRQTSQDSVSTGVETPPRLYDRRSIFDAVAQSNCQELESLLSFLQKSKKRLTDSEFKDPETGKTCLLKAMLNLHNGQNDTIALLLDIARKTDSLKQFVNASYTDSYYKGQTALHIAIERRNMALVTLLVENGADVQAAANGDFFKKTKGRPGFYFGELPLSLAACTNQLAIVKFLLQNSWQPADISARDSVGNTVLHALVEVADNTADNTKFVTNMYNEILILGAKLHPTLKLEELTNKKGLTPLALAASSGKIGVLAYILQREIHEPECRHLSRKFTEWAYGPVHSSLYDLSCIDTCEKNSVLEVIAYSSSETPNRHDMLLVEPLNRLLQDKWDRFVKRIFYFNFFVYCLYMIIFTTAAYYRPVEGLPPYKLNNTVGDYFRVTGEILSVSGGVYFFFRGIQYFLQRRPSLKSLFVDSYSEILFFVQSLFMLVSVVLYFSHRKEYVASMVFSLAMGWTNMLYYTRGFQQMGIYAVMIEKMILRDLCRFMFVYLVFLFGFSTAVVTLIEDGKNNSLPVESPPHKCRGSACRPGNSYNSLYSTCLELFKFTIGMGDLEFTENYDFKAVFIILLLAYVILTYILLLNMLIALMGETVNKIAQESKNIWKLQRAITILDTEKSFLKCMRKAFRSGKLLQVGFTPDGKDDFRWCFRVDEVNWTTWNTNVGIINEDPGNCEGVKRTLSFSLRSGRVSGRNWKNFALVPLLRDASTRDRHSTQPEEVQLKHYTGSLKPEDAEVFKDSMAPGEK
# Protocol: as §1, §2
# mTRPA1 mutants (M1-M13) = target: T3, mTRPA1 mutants (M1-M13) (Mus musculus, UniProt Q8BLA8, P937A); assay: Whole-cell patch clamp in CHO cells transfected with mutant mTrpa1 cDNAs (M1-M13); conditions: M11, single residue mutation of mP937
# T3 construct: HA; expressed in transfected cells; host or cells: CHO cells (ATCC CRL-9096), transient transfection
# T3 sequence (Q8BLA8 whole entry P937A): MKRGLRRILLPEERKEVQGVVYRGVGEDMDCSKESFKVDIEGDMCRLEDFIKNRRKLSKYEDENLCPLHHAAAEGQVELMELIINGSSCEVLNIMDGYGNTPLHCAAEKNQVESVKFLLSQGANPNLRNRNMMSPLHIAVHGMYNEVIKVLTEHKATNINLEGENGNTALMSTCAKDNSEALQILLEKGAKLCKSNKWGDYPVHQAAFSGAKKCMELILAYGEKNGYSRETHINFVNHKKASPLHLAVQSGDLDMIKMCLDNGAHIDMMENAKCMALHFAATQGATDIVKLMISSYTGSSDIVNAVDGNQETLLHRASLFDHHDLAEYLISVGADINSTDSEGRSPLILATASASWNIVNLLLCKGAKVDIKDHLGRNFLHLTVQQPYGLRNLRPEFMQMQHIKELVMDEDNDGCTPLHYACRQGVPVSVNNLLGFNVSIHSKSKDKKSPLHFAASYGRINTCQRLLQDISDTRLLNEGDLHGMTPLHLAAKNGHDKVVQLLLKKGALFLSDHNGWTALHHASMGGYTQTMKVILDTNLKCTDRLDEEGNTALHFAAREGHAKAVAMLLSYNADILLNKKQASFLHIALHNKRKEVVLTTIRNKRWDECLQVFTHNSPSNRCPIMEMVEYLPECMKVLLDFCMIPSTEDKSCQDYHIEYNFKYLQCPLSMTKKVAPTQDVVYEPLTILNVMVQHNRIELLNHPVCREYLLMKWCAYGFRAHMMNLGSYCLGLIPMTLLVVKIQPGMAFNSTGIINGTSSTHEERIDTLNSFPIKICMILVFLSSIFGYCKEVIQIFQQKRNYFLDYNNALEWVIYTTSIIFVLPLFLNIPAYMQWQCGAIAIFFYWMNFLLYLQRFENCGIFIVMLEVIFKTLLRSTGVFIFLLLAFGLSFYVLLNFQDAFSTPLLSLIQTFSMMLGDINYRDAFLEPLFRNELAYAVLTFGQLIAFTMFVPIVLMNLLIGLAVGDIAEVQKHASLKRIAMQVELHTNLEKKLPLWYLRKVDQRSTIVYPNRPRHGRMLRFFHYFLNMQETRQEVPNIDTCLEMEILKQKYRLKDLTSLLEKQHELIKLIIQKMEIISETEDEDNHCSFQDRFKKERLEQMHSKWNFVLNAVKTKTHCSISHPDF
# Protocol: as §1
# Cell Culture and Transfection. CD4^+ Myla cell line was cultured in RPMI 1640 media (GIBCO), supplemented with 2 mM Glutamine (GIBCO), 100 U/mL IL-2 (Sigma), 100 U/mL IL-4 (Sigma), and 10% human AB serum (Sigma). HuT 102 cell line was cultured in RPMI 1640 supplemented with pyruvate, HEPES, and 10% (v/v) fetal bovine serum (HyClone). HEK293-hTRPA1 stable cell line was cultured in MEM (GIBCO) containing 2 mM Glutamine, 4 μg/mL Blasticidin, 10% FBS (v/v). B16 and CHO cells were cultured in high glucose (4.5 g/L) Dulbecco's Modified Eagle's Medium (GIBCO) containing 10% (v/v) fetal bovine serum (GIBCO). Culture media were supplemented with 50 units/mL of penicillin and 50 μg/mL streptomycin, and cultures were maintained with 5% CO2 in 37° C. incubator. Transfection (2 μg cDNA) was performed with Lipofectamine™ 2000 Reagent (Invitrogen) at 80% confluency and the transfected cells were cultured in the same media for 48 hr before electrophysiological and biochemical studies.
# Whole-Cell Patch Clamp Recordings in HEK293 Cells, CHO Cells, and DRG Neurons. Whole-cell patch clamp recordings were performed at room temperature using an Axopatch-200B amplifier (Axon Instruments) with a Digidata 1440B (Axon Instruments). In this study, we only examined small-diameter mouse DRG neurons (<25 μM) and small-diameter human DRG neurons (<55 μM). The patch pipettes were pulled from borosilicate capillaries (World Precision Instruments) using a P-97 Flaming/Brown micropipette puller (Sutter Instrument). Pipette resistance was 4-6 MΩ for whole-cell and outside-out recording. For inward current recordings in mouse and human DRG neurons, HEK293 cells, and CHO cells, the internal solution contains (in mM): 140 CsCl, 10 EGTA, 10 HEPES, and 2 Mg-ATP, adjusted to pH 7.3 with CsOH. Whole cell recordings were performed in an extracellular solution that contains (in mM): 140 NaCl, 5 KCl, 2 MgCl2, 10 HEPES, and 10 glucose, adjusted to pH 7.4 with NaOH and osmolarity to 300-310 mOsm. […] Action potential recordings were performed in small-diameter DRG neurons, with the following solutions: i) internal pipette solution contains: 126 mM K-gluconate, 10 mM NaCl, 1 mM MgCl2, 10 mM EGTA, 10 mM HEPES and 2 mM Na-ATP, adjusted to pH 7.4 with KOH and osmolarity to 295-300 mOsm), and ii) extracellular solution contains: 140 mM NaCl, 5 mM KCl, 2 mM MgCl2, 2 mM CaCl2, 10 mM HEPES, 10 mM glucose, adjusted to pH 7.4 with KOH.
# hTRPA1, sequence (O75762 whole entry): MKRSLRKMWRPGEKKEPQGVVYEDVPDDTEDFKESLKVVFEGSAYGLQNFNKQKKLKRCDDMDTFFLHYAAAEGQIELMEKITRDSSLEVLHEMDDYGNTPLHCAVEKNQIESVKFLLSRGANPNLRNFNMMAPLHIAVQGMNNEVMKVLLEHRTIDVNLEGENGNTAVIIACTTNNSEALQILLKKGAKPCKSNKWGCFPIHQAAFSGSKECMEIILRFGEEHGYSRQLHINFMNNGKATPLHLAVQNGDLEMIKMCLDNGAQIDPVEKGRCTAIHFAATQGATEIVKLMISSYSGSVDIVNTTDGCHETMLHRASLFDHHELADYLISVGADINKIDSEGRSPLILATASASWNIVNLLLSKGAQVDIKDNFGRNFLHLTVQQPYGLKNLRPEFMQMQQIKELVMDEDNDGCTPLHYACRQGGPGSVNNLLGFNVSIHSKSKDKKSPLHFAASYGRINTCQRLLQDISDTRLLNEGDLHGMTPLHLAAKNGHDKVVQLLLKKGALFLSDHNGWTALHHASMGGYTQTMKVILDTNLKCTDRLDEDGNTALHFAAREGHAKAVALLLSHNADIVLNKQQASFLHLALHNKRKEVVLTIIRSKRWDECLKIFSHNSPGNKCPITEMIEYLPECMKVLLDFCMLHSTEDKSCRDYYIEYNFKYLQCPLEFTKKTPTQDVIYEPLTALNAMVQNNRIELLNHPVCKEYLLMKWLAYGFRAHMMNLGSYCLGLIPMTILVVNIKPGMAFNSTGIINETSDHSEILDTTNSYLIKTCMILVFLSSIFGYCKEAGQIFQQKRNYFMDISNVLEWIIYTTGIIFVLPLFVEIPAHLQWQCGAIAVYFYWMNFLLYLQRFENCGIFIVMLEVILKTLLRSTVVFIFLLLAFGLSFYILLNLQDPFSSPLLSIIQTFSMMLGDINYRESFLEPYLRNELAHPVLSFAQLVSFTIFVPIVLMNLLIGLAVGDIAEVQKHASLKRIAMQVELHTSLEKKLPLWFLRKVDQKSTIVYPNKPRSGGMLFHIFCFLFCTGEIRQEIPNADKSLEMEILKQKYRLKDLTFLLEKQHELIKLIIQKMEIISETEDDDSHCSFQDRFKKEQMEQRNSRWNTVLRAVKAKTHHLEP
substance,measurement,setting,value
miR-711: mmu-miR-711: gggacccggggagagauguaag (SEQ ID NO: 5) (GGGACCCGGGGAGAGAUGUAAG; chemistry not given here),calcium responses in TRPA1-expressing HEK293 cells,hTRPA1,evoked calcium responses
same,inward currents,TRPV2,failed to trigger inward currents
same,inward currents,TRPV1,failed to trigger inward currents
same,evoked currents in mutant,mTRPA1 mutants (M1-M13),markedly reduced
